Laboratory results as given in ChEMBL document CHEMBL3425500, “Perspective: Tyrosine phosphatases as novel targets for antiplatelet therapy” (Bioorg Med Chem, 2015).
pIC50, pKi: −log10 of the molar value. Values belong to the molecule of their own block, whether it stands above or below them.

Columns and labels:
[1] = biological target: Dual specificity protein phosphatase 3 (Homo sapiens, UniProt P51452); assay: Inhibition of recombinant VHR (unknown origin) using OMFP as substrate after 1 hr by fluorescence assay
Chain of Dual specificity protein phosphatase 3 (P51452 whole entry): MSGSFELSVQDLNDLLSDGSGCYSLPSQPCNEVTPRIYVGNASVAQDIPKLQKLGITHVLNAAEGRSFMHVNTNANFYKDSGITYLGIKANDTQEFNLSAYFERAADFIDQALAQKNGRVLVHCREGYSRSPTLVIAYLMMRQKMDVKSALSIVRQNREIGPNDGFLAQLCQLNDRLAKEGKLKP

[2] = biological target: T1, Receptor-type tyrosine-protein phosphatase R (Homo sapiens, UniProt Q15256); assay: Inhibition of recombinant PTP-SL (unknown origin) using OMFP as substrate after 1 hr by fluorescence assay
T1 sequence (Q15256 whole entry): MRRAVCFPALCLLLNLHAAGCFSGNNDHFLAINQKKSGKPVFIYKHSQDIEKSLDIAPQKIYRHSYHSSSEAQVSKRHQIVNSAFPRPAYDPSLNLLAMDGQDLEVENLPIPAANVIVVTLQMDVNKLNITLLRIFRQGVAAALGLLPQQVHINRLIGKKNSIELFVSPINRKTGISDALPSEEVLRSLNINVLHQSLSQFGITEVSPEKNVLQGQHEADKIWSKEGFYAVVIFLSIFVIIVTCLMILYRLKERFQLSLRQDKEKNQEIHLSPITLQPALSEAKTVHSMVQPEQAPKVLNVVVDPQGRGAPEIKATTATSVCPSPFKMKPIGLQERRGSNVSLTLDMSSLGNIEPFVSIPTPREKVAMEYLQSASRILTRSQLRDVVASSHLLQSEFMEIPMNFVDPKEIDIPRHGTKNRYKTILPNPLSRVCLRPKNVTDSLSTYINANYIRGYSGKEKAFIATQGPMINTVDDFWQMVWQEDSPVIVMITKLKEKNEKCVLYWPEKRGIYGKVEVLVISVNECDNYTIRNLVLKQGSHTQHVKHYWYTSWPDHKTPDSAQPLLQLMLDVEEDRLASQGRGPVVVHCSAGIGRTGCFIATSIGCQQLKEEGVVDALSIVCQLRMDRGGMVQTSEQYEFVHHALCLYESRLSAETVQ

[3] = biological target: T2, Dual specificity protein phosphatase 22 (Homo sapiens, UniProt Q9NRW4); assay: Inhibition of recombinant VHX (unknown origin) using OMFP as substrate after 1 hr by fluorescence assay
T2 sequence (Q9NRW4 whole entry): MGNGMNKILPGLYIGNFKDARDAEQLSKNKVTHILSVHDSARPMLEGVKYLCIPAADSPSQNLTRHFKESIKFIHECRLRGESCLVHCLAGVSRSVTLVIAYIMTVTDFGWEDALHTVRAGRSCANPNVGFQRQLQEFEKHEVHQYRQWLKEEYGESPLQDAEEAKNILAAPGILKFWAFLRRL

[4] = biological target: T3, Tyrosine-protein phosphatase non-receptor type 7 (Homo sapiens, UniProt P35236); assay: Inhibition of recombinant HePTP (unknown origin) using OMFP as substrate after 1 hr by fluorescence assay
T3 sequence (P35236 whole entry): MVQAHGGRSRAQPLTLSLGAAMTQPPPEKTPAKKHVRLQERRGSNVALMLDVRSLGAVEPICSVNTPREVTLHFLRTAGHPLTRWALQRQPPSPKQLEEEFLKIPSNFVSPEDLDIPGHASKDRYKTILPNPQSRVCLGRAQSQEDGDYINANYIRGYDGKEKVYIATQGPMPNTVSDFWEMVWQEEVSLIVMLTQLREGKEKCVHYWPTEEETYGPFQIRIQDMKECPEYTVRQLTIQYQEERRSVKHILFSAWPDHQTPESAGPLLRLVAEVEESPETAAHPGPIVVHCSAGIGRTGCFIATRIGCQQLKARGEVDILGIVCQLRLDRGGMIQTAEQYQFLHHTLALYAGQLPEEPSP

[5] = biological target: T4, Tyrosine-protein phosphatase non-receptor type 22 (Homo sapiens, UniProt Q9Y2R2); assay: Inhibition of recombinant LYP (unknown origin) using OMFP as substrate after 1 hr by fluorescence assay
T4 sequence (Q9Y2R2 whole entry): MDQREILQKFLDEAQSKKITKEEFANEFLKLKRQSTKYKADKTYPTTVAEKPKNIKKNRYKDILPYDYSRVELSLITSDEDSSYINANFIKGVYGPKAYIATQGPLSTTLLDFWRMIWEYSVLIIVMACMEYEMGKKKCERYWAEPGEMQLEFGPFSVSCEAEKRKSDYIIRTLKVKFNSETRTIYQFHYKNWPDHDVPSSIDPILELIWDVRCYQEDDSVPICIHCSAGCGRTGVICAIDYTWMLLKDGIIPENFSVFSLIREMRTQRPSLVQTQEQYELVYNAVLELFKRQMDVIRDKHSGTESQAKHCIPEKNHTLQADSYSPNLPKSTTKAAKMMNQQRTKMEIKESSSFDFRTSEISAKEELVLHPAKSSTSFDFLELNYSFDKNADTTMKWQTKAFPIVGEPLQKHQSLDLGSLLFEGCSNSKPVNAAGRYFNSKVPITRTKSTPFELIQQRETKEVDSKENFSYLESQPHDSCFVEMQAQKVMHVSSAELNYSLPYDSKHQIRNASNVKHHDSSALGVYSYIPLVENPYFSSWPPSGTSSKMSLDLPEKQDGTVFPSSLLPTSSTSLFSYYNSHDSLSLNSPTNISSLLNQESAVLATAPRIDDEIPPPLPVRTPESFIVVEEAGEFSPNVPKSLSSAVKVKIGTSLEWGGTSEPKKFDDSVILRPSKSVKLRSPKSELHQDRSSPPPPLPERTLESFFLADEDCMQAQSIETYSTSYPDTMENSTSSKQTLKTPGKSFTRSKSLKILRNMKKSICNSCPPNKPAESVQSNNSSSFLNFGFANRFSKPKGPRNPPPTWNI

[6] = biological target: T5, Tyrosine-protein phosphatase non-receptor type 2 (Homo sapiens, UniProt P17706); assay: Inhibition of recombinant TCPTP (unknown origin) using OMFP as substrate after 1 hr by fluorescence assay
T5 sequence (P17706 whole entry): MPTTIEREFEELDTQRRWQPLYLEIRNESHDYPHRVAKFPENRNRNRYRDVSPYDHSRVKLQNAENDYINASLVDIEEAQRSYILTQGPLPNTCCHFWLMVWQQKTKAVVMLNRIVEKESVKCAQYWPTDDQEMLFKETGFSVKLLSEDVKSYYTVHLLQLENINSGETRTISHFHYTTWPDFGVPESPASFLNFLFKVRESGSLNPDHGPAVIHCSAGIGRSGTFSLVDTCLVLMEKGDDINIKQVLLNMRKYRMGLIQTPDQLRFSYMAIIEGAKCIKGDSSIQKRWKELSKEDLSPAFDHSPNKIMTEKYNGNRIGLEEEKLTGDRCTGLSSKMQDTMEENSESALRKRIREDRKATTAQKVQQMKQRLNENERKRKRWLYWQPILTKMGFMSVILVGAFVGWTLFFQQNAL

[7] = biological target: T6, Receptor-type tyrosine-protein phosphatase C (Homo sapiens, UniProt P08575); assay: Inhibition of recombinant CD45 (unknown origin) using OMFP as substrate after 1 hr by fluorescence assay
T6 sequence (P08575 whole entry): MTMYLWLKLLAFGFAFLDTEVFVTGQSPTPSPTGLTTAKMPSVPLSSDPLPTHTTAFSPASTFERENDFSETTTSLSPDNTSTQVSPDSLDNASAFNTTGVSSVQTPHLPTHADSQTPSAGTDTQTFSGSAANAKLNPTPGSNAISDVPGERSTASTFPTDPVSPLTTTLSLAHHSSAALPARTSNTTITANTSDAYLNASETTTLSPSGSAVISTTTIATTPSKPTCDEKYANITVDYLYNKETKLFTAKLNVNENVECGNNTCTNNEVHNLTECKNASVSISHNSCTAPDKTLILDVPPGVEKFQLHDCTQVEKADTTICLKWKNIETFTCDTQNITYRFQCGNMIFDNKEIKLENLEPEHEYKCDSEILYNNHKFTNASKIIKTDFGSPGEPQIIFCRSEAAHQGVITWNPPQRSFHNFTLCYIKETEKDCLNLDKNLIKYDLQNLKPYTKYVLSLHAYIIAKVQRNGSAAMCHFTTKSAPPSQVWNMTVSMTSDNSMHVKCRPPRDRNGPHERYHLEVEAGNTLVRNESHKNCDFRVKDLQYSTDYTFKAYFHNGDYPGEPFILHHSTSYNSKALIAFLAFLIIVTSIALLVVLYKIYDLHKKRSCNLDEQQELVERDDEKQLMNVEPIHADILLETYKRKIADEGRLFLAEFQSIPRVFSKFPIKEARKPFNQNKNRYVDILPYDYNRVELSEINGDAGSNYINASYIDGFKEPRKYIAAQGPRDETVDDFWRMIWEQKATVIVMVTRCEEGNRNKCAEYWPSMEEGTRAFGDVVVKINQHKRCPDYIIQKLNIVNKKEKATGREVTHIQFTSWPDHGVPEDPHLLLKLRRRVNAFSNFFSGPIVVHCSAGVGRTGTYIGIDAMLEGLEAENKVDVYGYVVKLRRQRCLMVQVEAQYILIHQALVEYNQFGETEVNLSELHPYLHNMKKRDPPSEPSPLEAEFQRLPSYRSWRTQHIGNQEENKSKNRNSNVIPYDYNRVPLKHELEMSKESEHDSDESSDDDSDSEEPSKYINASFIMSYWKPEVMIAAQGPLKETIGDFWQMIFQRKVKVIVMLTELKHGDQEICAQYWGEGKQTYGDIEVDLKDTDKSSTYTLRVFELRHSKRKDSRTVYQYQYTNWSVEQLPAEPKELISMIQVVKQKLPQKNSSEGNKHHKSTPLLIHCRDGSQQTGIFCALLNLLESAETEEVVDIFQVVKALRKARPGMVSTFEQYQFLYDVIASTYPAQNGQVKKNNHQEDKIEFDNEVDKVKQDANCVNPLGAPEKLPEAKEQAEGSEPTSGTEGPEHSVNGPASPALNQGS

[8] = biological target: Receptor-type tyrosine-protein phosphatase F (Homo sapiens, UniProt P10586); assay: Inhibition of recombinant LAR (unknown origin) using OMFP as substrate after 1 hr by fluorescence assay
Chain of Receptor-type tyrosine-protein phosphatase F (P10586 whole entry): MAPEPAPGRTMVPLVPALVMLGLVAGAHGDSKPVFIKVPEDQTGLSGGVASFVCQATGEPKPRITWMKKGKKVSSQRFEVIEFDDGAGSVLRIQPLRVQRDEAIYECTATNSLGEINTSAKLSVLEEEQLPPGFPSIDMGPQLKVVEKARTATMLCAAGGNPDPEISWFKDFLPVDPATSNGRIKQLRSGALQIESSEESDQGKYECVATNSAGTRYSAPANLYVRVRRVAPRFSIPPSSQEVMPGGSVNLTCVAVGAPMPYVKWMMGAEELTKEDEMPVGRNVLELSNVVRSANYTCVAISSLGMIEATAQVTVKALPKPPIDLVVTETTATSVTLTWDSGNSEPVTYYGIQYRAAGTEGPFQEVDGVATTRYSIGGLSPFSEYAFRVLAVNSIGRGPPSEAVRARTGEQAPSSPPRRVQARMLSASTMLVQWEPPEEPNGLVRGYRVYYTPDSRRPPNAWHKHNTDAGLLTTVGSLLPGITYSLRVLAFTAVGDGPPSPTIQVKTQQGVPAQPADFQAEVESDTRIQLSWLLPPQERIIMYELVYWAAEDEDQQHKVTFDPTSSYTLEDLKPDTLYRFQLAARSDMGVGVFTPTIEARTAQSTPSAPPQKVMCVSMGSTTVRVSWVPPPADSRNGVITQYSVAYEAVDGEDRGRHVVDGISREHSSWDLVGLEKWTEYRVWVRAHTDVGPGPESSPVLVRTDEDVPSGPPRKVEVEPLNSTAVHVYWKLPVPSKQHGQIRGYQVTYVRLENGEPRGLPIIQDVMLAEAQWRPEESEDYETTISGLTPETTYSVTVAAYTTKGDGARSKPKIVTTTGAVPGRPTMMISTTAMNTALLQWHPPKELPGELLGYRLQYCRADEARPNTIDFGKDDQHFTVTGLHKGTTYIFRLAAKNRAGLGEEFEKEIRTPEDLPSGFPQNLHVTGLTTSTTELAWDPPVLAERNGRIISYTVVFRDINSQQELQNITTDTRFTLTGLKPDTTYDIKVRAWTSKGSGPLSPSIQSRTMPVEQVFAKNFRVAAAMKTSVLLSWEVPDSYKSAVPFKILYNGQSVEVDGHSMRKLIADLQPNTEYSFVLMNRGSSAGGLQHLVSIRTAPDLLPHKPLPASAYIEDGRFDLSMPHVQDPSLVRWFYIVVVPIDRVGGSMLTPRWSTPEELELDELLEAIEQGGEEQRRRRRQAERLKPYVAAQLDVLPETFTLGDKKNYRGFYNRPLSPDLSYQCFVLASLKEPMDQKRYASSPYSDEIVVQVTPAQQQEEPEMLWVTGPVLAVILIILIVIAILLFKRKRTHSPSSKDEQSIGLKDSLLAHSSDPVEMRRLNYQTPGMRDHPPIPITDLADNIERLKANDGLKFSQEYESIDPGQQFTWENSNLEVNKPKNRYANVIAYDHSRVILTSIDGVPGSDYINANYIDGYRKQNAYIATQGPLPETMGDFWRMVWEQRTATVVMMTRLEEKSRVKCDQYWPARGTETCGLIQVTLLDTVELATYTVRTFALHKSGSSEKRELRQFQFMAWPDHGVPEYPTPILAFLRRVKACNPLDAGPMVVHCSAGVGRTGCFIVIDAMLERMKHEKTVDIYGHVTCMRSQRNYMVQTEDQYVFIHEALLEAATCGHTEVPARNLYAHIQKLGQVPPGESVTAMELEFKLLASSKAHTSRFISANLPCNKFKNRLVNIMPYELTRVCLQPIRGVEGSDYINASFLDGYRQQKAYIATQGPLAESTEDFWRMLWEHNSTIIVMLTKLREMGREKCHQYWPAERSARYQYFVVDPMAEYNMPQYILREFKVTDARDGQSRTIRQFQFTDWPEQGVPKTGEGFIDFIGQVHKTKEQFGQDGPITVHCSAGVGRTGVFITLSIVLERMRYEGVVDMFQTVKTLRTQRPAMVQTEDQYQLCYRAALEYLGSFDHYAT

[9] = biological target: T7, Tyrosine-protein phosphatase non-receptor type 5 (Homo sapiens, UniProt P54829); assay: Inhibition of recombinant STEP (unknown origin) using OMFP as substrate after 1 hr by fluorescence assay
T7 sequence (P54829 whole entry): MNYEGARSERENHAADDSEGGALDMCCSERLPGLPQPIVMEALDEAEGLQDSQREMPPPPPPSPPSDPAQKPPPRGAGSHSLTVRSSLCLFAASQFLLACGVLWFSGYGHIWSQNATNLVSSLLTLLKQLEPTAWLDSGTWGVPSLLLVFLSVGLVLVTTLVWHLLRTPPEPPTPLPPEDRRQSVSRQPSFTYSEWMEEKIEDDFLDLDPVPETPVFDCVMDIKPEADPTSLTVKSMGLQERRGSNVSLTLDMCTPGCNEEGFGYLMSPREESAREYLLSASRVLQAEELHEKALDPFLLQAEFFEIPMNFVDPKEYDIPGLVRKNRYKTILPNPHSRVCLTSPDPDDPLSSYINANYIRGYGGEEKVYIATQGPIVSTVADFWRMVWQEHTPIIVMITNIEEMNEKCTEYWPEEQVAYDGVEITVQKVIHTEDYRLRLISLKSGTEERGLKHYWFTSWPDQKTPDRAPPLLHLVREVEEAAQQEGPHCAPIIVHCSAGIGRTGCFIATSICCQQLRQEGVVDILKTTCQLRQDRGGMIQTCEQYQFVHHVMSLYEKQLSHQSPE

[10] = biological target: T8, Tyrosine-protein phosphatase non-receptor type 1 (Homo sapiens, UniProt P18031); assay: Inhibition of recombinant PTP1B (unknown origin) using OMFP as substrate after 1 hr by fluorescence assay
T8 sequence (P18031 whole entry): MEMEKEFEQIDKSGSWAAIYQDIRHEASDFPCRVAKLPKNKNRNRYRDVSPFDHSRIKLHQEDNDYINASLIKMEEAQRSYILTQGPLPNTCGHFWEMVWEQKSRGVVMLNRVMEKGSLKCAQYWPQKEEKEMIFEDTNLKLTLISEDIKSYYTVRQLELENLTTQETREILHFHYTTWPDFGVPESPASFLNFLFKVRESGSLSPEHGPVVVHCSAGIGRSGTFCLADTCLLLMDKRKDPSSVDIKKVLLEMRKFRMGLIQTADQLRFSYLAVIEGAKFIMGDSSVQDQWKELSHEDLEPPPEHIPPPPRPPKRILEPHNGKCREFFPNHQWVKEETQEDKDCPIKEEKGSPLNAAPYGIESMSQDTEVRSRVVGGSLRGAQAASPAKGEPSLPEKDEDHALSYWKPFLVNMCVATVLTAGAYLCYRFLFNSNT

[11] = biological target: T9, Dual specificity protein phosphatase 6 (Homo sapiens, UniProt Q16828); assay: Inhibition of recombinant MKP3 (unknown origin) using OMFP as substrate after 1 hr by fluorescence assay
T9 sequence (Q16828 whole entry): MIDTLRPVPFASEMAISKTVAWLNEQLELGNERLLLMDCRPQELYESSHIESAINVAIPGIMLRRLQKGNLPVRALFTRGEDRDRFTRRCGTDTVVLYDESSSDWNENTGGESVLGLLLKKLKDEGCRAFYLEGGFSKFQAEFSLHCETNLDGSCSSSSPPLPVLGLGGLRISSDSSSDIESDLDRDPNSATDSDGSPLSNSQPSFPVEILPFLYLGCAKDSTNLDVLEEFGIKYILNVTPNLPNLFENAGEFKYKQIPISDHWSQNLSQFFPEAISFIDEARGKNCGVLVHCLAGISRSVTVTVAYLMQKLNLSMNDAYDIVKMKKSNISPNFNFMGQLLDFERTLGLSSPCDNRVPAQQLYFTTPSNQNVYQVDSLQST

[12] = biological target: T8, Tyrosine-protein phosphatase non-receptor type 1; assay: Competitive inhibition of PTP1B (unknown origin)
[13] = biological target: T8, Tyrosine-protein phosphatase non-receptor type 1; assay: Inhibition of recombinant human PTP1B assessed as hydrolysis of DiFMUP preincubated for 10 mins followed by DiFMUP addition measured after 5 mins by fluorescence assay

pIC50 [1]: 5.57
Structure (SMILES): COc1ccc(-c2nnc(Nc3nc4c(OC)cccc4s3)o2)cc1

pIC50 [2]: 4.89 | pIC50 [3]: 4.59 | pIC50 [4]: 4.42 | pIC50 [5]: 4.31 | pIC50 [6]: 4.26 | pIC50 [7]: < 4.00 | pIC50 [8]: < 4.00 | pIC50 [9]: < 4.00 | pIC50 [10]: < 4.00 | pIC50 [11]: < 4.00
Structure (SMILES): COc1ccc(-c2nnc(Nc3nc4c(F)cccc4s3)o2)cc1

pKi [12]: 7.59
Structure (SMILES): CCCCCCCCCCCCCCC(=O)N[C@@H](Cc1ccc(C(F)(F)P(=O)(O)O)cc1)C(=O)N[C@@H](CC(=O)O)C(=O)N[C@@H](Cc1ccc(C(F)(F)P(=O)(O)O)cc1)C(N)=O

pIC50 [13]: 6.62
Structure (SMILES): CN1C(=O)/C(=C\c2ccc(OCc3ccc(C4CCCCC4)cc3)cc2)S/C1=N/c1ccc(CC(=O)O)cc1
